From PubChem BioAssay AID1918998 (Molecular Pharmacology Branch, DTP, NCI, 2023)
Where “and” joins values, the source holds several entries; their conditions need not be identical. Identical values can stand only once. Blank lines part the entries; values can stand above or below the compound they belong to.

Tested on: 521955-158-R2-J5-PDC complex spheroid growth
Test: Anticancer human tumor 521955-158-R2-J5-PDC patient-derived pancreatic carcinoma cell line growth inhibition [AhR]
Settings: for viability, T/C: stronger effect = lower value
Outline: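 Agents were dosed in half-log steps down from roughly clinical Cmax, or from 10 microM where Cmax was unknown, alone and with AhR antagonists. Read-out: percent test/control growth of tumor spheroids containing HUVEC and MSC stromal cells.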

[1] = curve of first compound, second compound 0.1 µM
[2] = curve of first compound, second compound 0.316 µM
[3] = curve of first compound, second compound 1 µM
[4] = curve of first compound, second compound 3.16 µM
[5] = curve of first compound, second compound 10 µM
[6] = second compound 0.1 µM, first compound 0.0316 µM
[7] = second compound 0.1 µM, first compound 0.1 µM
[8] = second compound 0.1 µM, first compound 0.316 µM
[9] = second compound 0.1 µM, first compound 1 µM
[10] = second compound 0.1 µM, first compound 3.16 µM
[11] = second compound 0.1 µM, first compound 10 µM
[12] = second compound 0.316 µM, first compound 0.0316 µM
[13] = second compound 0.316 µM, first compound 0.1 µM
[14] = second compound 0.316 µM, first compound 0.316 µM
[15] = second compound 0.316 µM, first compound 1 µM
[16] = second compound 0.316 µM, first compound 3.16 µM
[17] = second compound 0.316 µM, first compound 10 µM
[18] = second compound 1 µM, first compound 0.0316 µM
[19] = second compound 1 µM, first compound 0.1 µM
[20] = second compound 1 µM, first compound 0.316 µM
[21] = second compound 1 µM, first compound 1 µM
[22] = second compound 1 µM, first compound 3.16 µM
[23] = second compound 1 µM, first compound 10 µM
[24] = second compound 3.16 µM, first compound 0.0316 µM
[25] = second compound 3.16 µM, first compound 0.1 µM
[26] = second compound 3.16 µM, first compound 0.316 µM
[27] = second compound 3.16 µM, first compound 1 µM
[28] = second compound 3.16 µM, first compound 3.16 µM
[29] = second compound 3.16 µM, first compound 10 µM
[30] = second compound 10 µM, first compound 0.0316 µM
[31] = second compound 10 µM, first compound 0.1 µM
[32] = second compound 10 µM, first compound 0.316 µM
[33] = second compound 10 µM, first compound 1 µM
[34] = second compound 10 µM, first compound 3.16 µM
[35] = second compound 10 µM, first compound 10 µM
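For viability, T/C in this document: spheroids mix tumor cells with HUVEC endothelium and human MSC stroma; luminescence taken as viability surrogate after a week of drug exposure.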

Structure (SMILES): Nc1ccn(C2OC(CO)C(O)C2(F)F)c(=O)n1 (centres undefined) + Cc1ccccc1N=Nc1ccc(NC(=O)c2ccnn2C)c(C)c1
IC50 [1]: 267 nM | IC50 [2]: 501 nM | IC50 [3]: 448 nM | IC50 [4]: 405 nM | IC50 [5]: 338 nM | viability, T/C [6]: 76.7% | viability, T/C [7]: 52.4% | viability, T/C [8]: 57% | viability, T/C [9]: 28.4% | viability, T/C [10]: 13.3% | viability, T/C [11]: 14.5% | viability, T/C [12]: 66.8% | viability, T/C [13]: 52.7% | viability, T/C [14]: 85.8% | viability, T/C [15]: 22.3% | viability, T/C [16]: 13.5% | viability, T/C [17]: 12.5% | viability, T/C [18]: 66.5% | viability, T/C [19]: 52.5% | viability, T/C [20]: 71.2% | viability, T/C [21]: 19.2% | viability, T/C [22]: 13.5% | viability, T/C [23]: 12.4% | viability, T/C [24]: 91.2% | viability, T/C [25]: 69.1% | viability, T/C [26]: 62.3% | viability, T/C [27]: 21.8% | viability, T/C [28]: 13.2% | viability, T/C [29]: 14.4% | viability, T/C [30]: 107% | viability, T/C [31]: 93.8% | viability, T/C [32]: 52.1% | viability, T/C [33]: 21.6% | viability, T/C [34]: 17.8% | viability, T/C [35]: 15.6%

Structure (SMILES): COc1cc(Nc2ncc3c(n2)-c2ccc(Cl)cc2C(c2c(F)cccc2OC)=NC3)ccc1C(=O)O + CC(CO)NC(=O)c1cc(-c2ccc(Cl)cc2)nn(-c2cnn(C)c2)c1=O
IC50 [1]: > 10000 nM | IC50 [2]: > 10000 nM | IC50 [3]: > 10000 nM | IC50 [4]: 2660 nM | IC50 [5]: 1180 nM | viability, T/C [6]: 99.5% | viability, T/C [7]: 78.4% | viability, T/C [8]: 68.2% | viability, T/C [9]: 61.9% | viability, T/C [10]: 65.3% | viability, T/C [11]: 50% | viability, T/C [12]: 91.3% | viability, T/C [13]: 74.6% | viability, T/C [14]: 71.9% | viability, T/C [15]: 76.5% | viability, T/C [16]: 55% | viability, T/C [17]: 50.6% | viability, T/C [18]: 59.5% | viability, T/C [19]: 64.9% | viability, T/C [20]: 69.2% | viability, T/C [21]: 63.6% | viability, T/C [22]: 48.6% | viability, T/C [23]: 72.8% | viability, T/C [24]: 84.3% | viability, T/C [25]: 69.5% | viability, T/C [26]: 48% | viability, T/C [27]: 65.4% | viability, T/C [28]: 47.7% | viability, T/C [29]: 44.9% | viability, T/C [30]: 62.2% | viability, T/C [31]: 49.3% | viability, T/C [32]: 62.4% | viability, T/C [33]: 51.8% | viability, T/C [34]: 37.6% | viability, T/C [35]: 35%

Structure (SMILES): COc1cc(Nc2ncc3c(n2)-c2ccc(Cl)cc2C(c2c(F)cccc2OC)=NC3)ccc1C(=O)O + Cc1ccccc1N=Nc1ccc(NC(=O)c2ccnn2C)c(C)c1
IC50 [1]: > 10000 nM | IC50 [2]: > 10000 nM | IC50 [3]: > 10000 nM | IC50 [4]: > 10000 nM | IC50 [5]: > 10000 nM | viability, T/C [6]: 81.3% | viability, T/C [7]: 76% | viability, T/C [8]: 69.8% | viability, T/C [9]: 68.1% | viability, T/C [10]: 63.8% | viability, T/C [11]: 48.5% | viability, T/C [12]: 89.5% | viability, T/C [13]: 79.9% | viability, T/C [14]: 72.4% | viability, T/C [15]: 60.2% | viability, T/C [16]: 71.4% | viability, T/C [17]: 55.4% | viability, T/C [18]: 109% | viability, T/C [19]: 69.8% | viability, T/C [20]: 74.3% | viability, T/C [21]: 58.9% | viability, T/C [22]: 62.1% | viability, T/C [23]: 53.9% | viability, T/C [24]: 98.6% | viability, T/C [25]: 77% | viability, T/C [26]: 68.3% | viability, T/C [27]: 74.2% | viability, T/C [28]: 74.7% | viability, T/C [29]: 71.4% | viability, T/C [30]: 122% | viability, T/C [31]: 96.1% | viability, T/C [32]: 94.6% | viability, T/C [33]: 88.5% | viability, T/C [34]: 83.4% | viability, T/C [35]: 90.7%

Structure (SMILES): O=C(c1cc(Cc2n[nH]c(=O)c3ccccc23)ccc1F)N1CCN(C(=O)C2CC2)CC1
viability, T/C (compound 0.0316 µM): 95.8% and 118% and 96.5% | viability, T/C (compound 0.1 µM): 104% and 72.7% and 112% | viability, T/C (compound 0.316 µM): 117% and 80.1% and 96% | viability, T/C (compound 1 µM): 89.8% and 84.7% and 92.4% | viability, T/C (compound 3.16 µM): 104% and 92.2% and 90.4% | viability, T/C (compound 10 µM): 84.5% and 65.4% and 76.3% | IC50 (curve of compound): > 10000 nM

Structure (SMILES): COc1cc(C2c3cc4c(cc3C(OC3OC5COC(C)OC5C(O)C3O)C3COC(=O)C23)OCO4)cc(OC)c1O (centres undefined)
viability, T/C (compound 0.0316 µM): 92.5% and 85.2% and 81.7% | viability, T/C (compound 0.1 µM): 98.5% and 79.4% and 77% | viability, T/C (compound 0.316 µM): 76.4% and 80.6% and 66.2% | viability, T/C (compound 1 µM): 56.4% and 36.8% and 39.9% | viability, T/C (compound 3.16 µM): 36.9% and 23.6% and 22.1% | viability, T/C (compound 10 µM): 31% and 20.7% and 19.1% | IC50 (curve of compound): 1380 nM and 706 nM and 636 nM

Further compounds by falling IC50 [1], results first:

IC50 [1]: 88.1 nM | IC50 [2]: 106 nM | IC50 [3]: 81.3 nM | IC50 [4]: 67.7 nM | IC50 [5]: 37.8 nM
Structure (SMILES): CC1COCCN1c1cc(-c2ccnn2C)c2ccnc(-c3ccn[nH]3)c2n1 (centres undefined) + CC(CO)NC(=O)c1cc(-c2ccc(Cl)cc2)nn(-c2cnn(C)c2)c1=O
viability, T/C (second compound 0.1 µM, first compound 0.00316 µM): 91.6% | viability, T/C (second compound 0.1 µM, first compound 0.01 µM): 121% | viability, T/C [6]: 98.3% | viability, T/C [7]: 44.3% | viability, T/C [8]: 11.2% | viability, T/C [9]: 14.6% | viability, T/C (second compound 0.316 µM, first compound 0.00316 µM): 141% | viability, T/C (second compound 0.316 µM, first compound 0.01 µM): 126% | viability, T/C [12]: 110% | viability, T/C [13]: 54.5% | viability, T/C [14]: 8.67% | viability, T/C [15]: 13.1% | viability, T/C (second compound 1 µM, first compound 0.00316 µM): 93% | viability, T/C (second compound 1 µM, first compound 0.01 µM): 115% | viability, T/C [18]: 120% | viability, T/C [19]: 37% | viability, T/C [20]: 8.65% | viability, T/C [21]: 13.6% | viability, T/C (second compound 3.16 µM, first compound 0.00316 µM): 115% | viability, T/C (second compound 3.16 µM, first compound 0.01 µM): 102% | viability, T/C [24]: 94.4% | viability, T/C [25]: 27.6% | viability, T/C [26]: 8.07% | viability, T/C [27]: 12.1% | viability, T/C (second compound 10 µM, first compound 0.00316 µM): 93.5% | viability, T/C (second compound 10 µM, first compound 0.01 µM): 89.5% | viability, T/C [30]: 55.8% | viability, T/C [31]: 17.8% | viability, T/C [32]: 7.29% | viability, T/C [33]: 12.2%

IC50 [1]: 2.22 nM | IC50 [2]: < 0.949 nM | IC50 [3]: 1.21 nM | IC50 [4]: < 0.949 nM | IC50 [5]: < 0.949 nM
Structure (SMILES): CCc1c2c(nc3ccc(O)cc13)-c1cc3c(c(=O)n1C2)COC(=O)[C@]3(O)CC + CC(CO)NC(=O)c1cc(-c2ccc(Cl)cc2)nn(-c2cnn(C)c2)c1=O
viability, T/C (second compound 0.1 µM, first compound 0.000949 µM): 57.4% | viability, T/C (second compound 0.1 µM, first compound 0.003 µM): 47.5% | viability, T/C (second compound 0.1 µM, first compound 0.00949 µM): 15.7% | viability, T/C (second compound 0.1 µM, first compound 0.03 µM): 9.8% | viability, T/C (second compound 0.1 µM, first compound 0.0949 µM): 8.28% | viability, T/C (second compound 0.1 µM, first compound 0.3 µM): 5.09% | viability, T/C (second compound 0.316 µM, first compound 0.000949 µM): 49.1% | viability, T/C (second compound 0.316 µM, first compound 0.003 µM): 36.5% | viability, T/C (second compound 0.316 µM, first compound 0.00949 µM): 13.5% | viability, T/C (second compound 0.316 µM, first compound 0.03 µM): 9.73% | viability, T/C (second compound 0.316 µM, first compound 0.0949 µM): 8.11% | viability, T/C (second compound 0.316 µM, first compound 0.3 µM): 5.79% | viability, T/C (second compound 1 µM, first compound 0.000949 µM): 55.3% | viability, T/C (second compound 1 µM, first compound 0.003 µM): 30% | viability, T/C (second compound 1 µM, first compound 0.00949 µM): 16.4% | viability, T/C (second compound 1 µM, first compound 0.03 µM): 7.85% | viability, T/C (second compound 1 µM, first compound 0.0949 µM): 9.01% | viability, T/C (second compound 1 µM, first compound 0.3 µM): 4.72% | viability, T/C (second compound 3.16 µM, first compound 0.000949 µM): 35.5% | viability, T/C (second compound 3.16 µM, first compound 0.003 µM): 29.3% | viability, T/C (second compound 3.16 µM, first compound 0.00949 µM): 16.7% | viability, T/C (second compound 3.16 µM, first compound 0.03 µM): 12.7% | viability, T/C (second compound 3.16 µM, first compound 0.0949 µM): 9.72% | viability, T/C (second compound 3.16 µM, first compound 0.3 µM): 9.82% | viability, T/C (second compound 10 µM, first compound 0.000949 µM): 27.3% | viability, T/C (second compound 10 µM, first compound 0.003 µM): 23.6% | viability, T/C (second compound 10 µM, first compound 0.00949 µM): 14.9% | viability, T/C (second compound 10 µM, first compound 0.03 µM): 8.31% | viability, T/C (second compound 10 µM, first compound 0.0949 µM): 7.42% | viability, T/C (second compound 10 µM, first compound 0.3 µM): 6.21%
